Measurements from publication PMC12889028, “Discovery and biological evaluation of novel N-aryl-N′-methylbenzodrazides against Schistosoma japonicum in vitro and in vivo” (Microbiology Spectrum, 2025).
Like-named read-outs stand apart in the source and are kept apart here.

Columns and labels:
[1] = Acute oral toxicity; type: in vivo; settings: ICR, mouse, in vivo, po, single oral dose, healthy ICR mice
Procedure: (§1) ICR mice (n = 10/group), aged 6 to 8 weeks, received a single oral dose of compounds 5, 18, and 41 (732–2,234 mg/kg). LD50 values were determined by Probit analysis (SPSS 26.0).

[2] = system: healthy mice; assay: Acute oral toxicity; type: in vivo; settings: single oral dose, healthy ICR mice
Procedure: as §1

[3] = system: adult worms of S. japonicum (Chinese strain); assay: microbe, parasite or virus in culture; settings: for mortality at 100 µM / LC50: Schistosoma japonicum; for LC50: read-out: LC50 (72 h)
[4] = system: MCF-7 (human breast cancer) cells; assay: Cytotoxicity MTT assay, MCF-7; type: cell-based; settings: Homo sapiens, MCF7, 48 h incubation
Procedure: (§2) The cytotoxicity of compounds 5, 18, and 41 against human liver cancer (HepG2) and human breast cancer (MCF-7) cell lines in vitro was evaluated using the MTT assay, with cisplatin as a positive control. Cells were plated into 96-well plates and incubated in 100 μL of Dulbecco’s modified Eagle’s medium for 24 h. Test compounds at specified final concentrations were then added to the culture medium. After 48 h incubation, MTT dye (10 μL, 0.5 mg/mL) was added, and cells were incubated for an additional 4 h at 37°C in 5% CO2. Formazan crystals were dissolved in 100 μL DMSO per well, and absorbance at 570 nm (OD570) was measured using an ELx800 microplate reader (Bio-Tek, Winooski, VT, USA) with background subtraction. Cytotoxicity was expressed as IC50 (the concentration causing 50% reduction in cell growth compared to untreated controls). Experiments were performed in triplicate, with results presented as mean ± standard deviation.

[5] = system: S. japonicum (Chinese strain); assay: In vivo antischistosomal assay in infected mice (worm burden, worm morphology, liver eggs); parameters: species or system Schistosoma japonicum in ICR mice; settings: mice, oral 100 mg/kg/day for 5 days; for Number of worms, Adult: adult stage (treatment from 35 dpi, sacrifice 45 dpi); for Worm burden reduction (WBR), Juvenile: juvenile stage (from 9 dpi); for Number of worms, Juvenile: juvenile stage (treatment from 9 dpi, sacrifice 45 dpi)
Procedure: (§3) Lead compounds 5, 18, and 41 (100 mg/kg) were orally administered once daily for 5 consecutive days to infected mice (n = 6/group) during two therapeutic windows: (i) Juvenile stage: treatment initiated at 9 dpi, terminal sacrifice at 45 dpi; (ii) adult stage: treatment initiated at 35 dpi, terminal sacrifice at 45 dpi. Positive controls received praziquantel (PZQ, 100 mg/kg/day ×5 days); negative controls received PBS (0.3 mL). Mice treated at 9 dpi were euthanized 36 days post-treatment; those treated at 35 dpi were euthanized 10 days post-treatment. Adult worms were perfused from the hepatic portal system and mesenteric veins. Parasite burden was quantified by worm enumeration, and worm burden reduction (WBR) was calculated:
WBR (%)=[1−Mean worm count (treated) / Mean worm count (control)]×100% .

[6] = system: HepG2 (human liver cancer) cells; assay: Cytotoxicity MTT assay, HepG2; type: cell-based; settings: Homo sapiens, HepG2, 48 h incubation
Procedure: as §2

[7] = Serum hepatic/renal function profiling of infected, treated mice; type: in vivo, ICR mice; settings: for Serum GGT: normal range 1–15 U/L; for Serum TBIL: normal range 1.7–15.4 µM; for Serum BUN: normal range 4.9–10.4 mM; for Serum ALT: normal range 28–132 U/L; for Serum AST: normal range 59–247 U/L
Procedure: Following maturation, Schistosoma parasites initiate oviposition, with a proportion of eggs migrating via the circulatory system to hepatic tissues. This ectopic deposition induces granuloma formation that subsequently elicits a cascade of immune-mediated pathologies, ultimately compromising hepatic and renal functions in murine models. To evaluate therapeutic efficacy, retro-orbital blood sampling was performed for comprehensive hepatic function profiling, enabling systematic assessment of pharmacological impacts on schistosomiasis-associated organ damage.
as §3, with “calculated: […]” for “calculated:”

[8] = system: adult S. japonicum worms; assay: SEM examination in vitro of tegumental damage; type: cell-based, Schistosoma japonicum; settings: 100 μM
Procedure: Adult S. japonicum worms (male/female) underwent standardized fixation after in vitro exposure to compounds 5, 18, and 41 over a period of 12 h. First, the samples were immersed in 2.5% glutaraldehyde (prepared with 40 mL 0.2 M phosphate-buffered saline [PBS, pH 7.4], 5 mL 50% glutaraldehyde stock, and 55 mL ultrapure water) at 4°C for 24 h. After triple washes in PBS for 5 min each, worms were rinsed with deionized water for 10 min. The next dehydration sequence included ethanol gradient (50%, 70%, 80%, 90%, 100%; 5 min/step) and tert-butanol gradient (50%, 70%, 90%, 100%; 10 min/step). The worms were freeze-dried, directly sputter-covered with a thin gold layer using a Sputter Coater, and imaged using a scanning electron microscope (Quanta 450).

[9] = system: Schistosoma mansoni; parameters: method as in PMID 25583726; settings: S. mansoni mouse model; cited from earlier work
[10] = 24 h, read-out: Mortality (%) 24 h, 100 μM, 24 h, adult worms in vitro
[11] = 36 h, read-out: Mortality (%) 36 h, 100 μM, 36 h, adult worms in vitro
[12] = 48 h, read-out: Mortality (%) 48 h, 100 μM, 48 h, adult worms in vitro
[13] = 72 h, read-out: Mortality (%) 72 h, 100 μM, 72 h, adult worms in vitro
[14] = infected mice treated in adult stage
[15] = infected mice treated in juvenile stage

CN(NC(=O)c1ccc(Cl)c(Cl)c1)c1ccc(Br)cc1 [Compound 5]
LD50 [1]: 1400 mg/kg
LD50 [2]: >2,000 mg/kg
LogLD50 [2]: >3.30
Mortality (%) 72 h ([3]; 100 μM, 72 h, adult worms in vitro): 100%
mortality at 100 µM [3, 10]: 35%
mortality at 100 µM [3, 11]: 65%
mortality at 100 µM [3, 12]: 95%
LC50 ([3]; 72 h): 80.2 ± 1.8 µM
mortality at 100 µM [3, 13]: > 80%
IC50 [4]: 43.8 ± 2.53 µM
Morphology of worms after treatment in vivo, adult stage ([5]; adult stage): making the males thicker and shorter
Worm burden reduction (WBR), Adult ([5]; adult stage (from 35 dpi), 100 mg/kg/day): 34%
Number of worms, Adult [5]: 29
Morphology of worms after treatment in vivo, juvenile stage ([5]; juvenile stage): marked stunting of male schistosomes
Worm burden reduction (WBR), Juvenile ([5]; 100 mg/kg/day): 25%
Number of worms, Juvenile [5]: 30
IC50 [6]: 23.2 ± 1.43 µM
Serum GGT [7, 14]: 0.73 ± 0.40 U/L
Serum TBIL [7, 14]: 6.70 ± 3.39 µM
Serum BUN [7, 14]: 8.80 ± 0.96 mM
Serum ALT [7, 14]: 313.33 ± 166.21 U/L
Serum AST [7, 14]: 527.33 ± 303.66 U/L
Serum GGT [7, 15]: 0.73 ± 0.06 U/L
Serum TBIL [7, 15]: 7.48 ± 1.64 µM
Serum BUN [7, 15]: 9.83 ± 1.43 mM
Serum ALT [7, 15]: 357.67 ± 176.92 U/L
Serum AST [7, 15]: 602.33 ± 309.33 U/L
Nephrotoxicity ([7]; infected treated mice, judged from BUN): without observable nephrotoxicity
Tegumental damage (SEM), female adult worms ([8]; female worms): full-thickness sucker ulceration with stromal collapse, atrophic transformation with coalescing vesicles, and advanced tissue disintegration with tegumental wrinkling
Tegumental damage (SEM), male adult worms ([8]; male worms): complete spine ablation in gynecophoric canals, suctorial constriction, and muscular layer protrusion through disrupted tegument

O=C(Nc1ccc(Cl)c(Cl)c1)Nc1ccc(Cl)c(Cl)c1 [MMV665852, reference compound]
mortality at 100 µM [3, 10]: 100%
mortality at 100 µM [3, 11]: 100%
mortality at 100 µM [3, 12]: 100%
LC50 ([3]; 72 h): 12.5 ± 2.36 µM
mortality at 100 µM [3, 13]: 100%
Number of worms, Adult [5]: 36
Worm burden reduction (WBR), Juvenile [5]: 20%
Number of worms, Juvenile [5]: 32
In vivo antischistosomal efficacy (worm burden reduction) [9]: minimal antischistosomal efficacy
